Measurements: PubChem BioAssay AID1508591
“And” between values parts separate entries of the source, which are not always exact repeats. Identical values can stand only once.

conditions: rat; liver microsomes; pH 7.4; 15.0 min; 1.0 µM

Row | Structure (SMILES) | half-life
1 | CCNC(=O)C[C@@H]1N=C(c2ccc(Cl)cc2)c2cc(OC)ccc2-n2c(C)nnc21 | > 30 min
2 | O=C(O)CCNc1cc(N2CCc3ccccc3CC2)nc(-c2ccccn2)n1 | > 30 min
3 | Cc1ccc(S(=O)(=O)Nc2cnccc2C(=O)Nc2nc(-c3ccc(C)c(C)c3)cs2)cc1 | 2.1 min
4 | CC(=O)Nc1nc(-c2ccc3c(c2)CCN3C(=O)c2ccccc2C)c(C)s1 | 18 min
5 | COc1ccc(C[C@@H]2C(=O)N[C@H](C)C(=O)N(C)[C@@H]3C(=O)N(C)[C@@H](Cc4ccc(O)c(c4)Oc4ccc(cc4)[C@H]3O)C(=O)N[C@@H](C)C(=O)N[C@H](C)C(=O)N2C)cc1 | 27.6 min
6 | CCc1cccc(NS(=O)(=O)c2ccc3c(c2)CC(C)N3C(=O)C2CC2)c1 (stereo not given) | 1.96 min
7 | CC(C)(C)C(=O)N1CCN(c2nccc(Nc3ccccc3Cl)n2)CC1 | 4.07 min
8 | COc1cccc(CN2CCCC(c3nc(-c4ccncc4)ncc3-c3ccccc3)C2)c1O (stereo not given) | 5.95 min
9 | Cc1ccc(-c2ccnc(N3CCC(C(N)=O)CC3)n2)cc1 | 2.35 min
10 | CCOc1ccc(CCNC(=O)c2cc3c(s2)CCC3)cc1OCC | 1.6 min
11 | O=C(Nc1ccccc1C(=O)Nc1cccc(C(F)(F)F)c1)c1ccccc1 | > 30 min
12 | Cc1c(C)n(Cc2ccc(-c3ccccc3C(=O)O)cc2)c2ccc(C(=O)N[C@@H](C)c3ccc([N+](=O)[O-])cc3)cc12 | > 30 min
13 | Fc1ccc(Nc2nc(-c3ccncc3F)nc3ccccc23)cc1F | 20 min
14 | CCN1C(=O)c2ccccc2[S@](=O)c2ccc(C(=O)NCc3ccc(C#N)cc3)cc21 | 21 min
15 | COc1cc2c(cc1OC)C(C[C@H]1CN(S(=O)(=O)c3cccc(C#N)c3)CC[C@H]1CC(=O)O)=NCC2 | > 30 min
16 | CC(=O)Nc1ncc(S(=O)(=O)N2CCOCC2)s1 | > 30 min
17 | COc1cc2c(C(=O)N3CCN(c4cccc(C(F)(F)F)c4)CC3)cn(CC(C)C)c(=O)c2cc1OC | 3.15 min
18 | c1ccc(-c2cc(Nc3nc(-c4ccncc4)nc4ccccc34)n[nH]2)cc1 | 11 min
19 | Cc1ccc(S(=O)(=O)Nc2cnccc2C(=O)Nc2nc(-c3ccc(Oc4ccccc4)cc3)cs2)cc1 | 6.9 min
20 | Cc1ccc(C(=O)NC2CCN(c3cnn(CC4CC4)c(=O)c3)CC2)cc1C | 16.3 min
21 | CC(=O)c1c(C)c2cnc(Nc3ccc(N4CCNCC4)cn3)nc2n(C2CCCC2)c1=O | > 30 min
22 | CCCN(CCC)CCc1cccc2c1CC(=O)N2 | 2.96 min
23 | COc1ccc(-c2cc(C(F)(F)F)nc(SCCC(=O)Nc3cc(C)ccc3O)n2)cc1 | 14.9 min
24 | CCN(CC)CCOc1ccc2c(=O)c3ccc(Cl)cc3n(CCN(CC)CC)c2c1 | 7.9 min
25 | Clc1ccc(-c2nc(-c3ccc(Br)o3)no2)c(Cl)c1 | 13 min

Row | Structure (SMILES) | half-life
26 | COc1cc(-c2cn(C)c(=O)c3cnccc23)c(OC)cc1CN(C)C | > 30 min
27 | O=C(c1ccccc1)N1CCN(c2nc(-c3ccc(Br)cc3)cs2)CC1 | > 30 min
28 | N#Cc1nc(-c2cccc3ccccc23)oc1NCc1ccccc1 | 8.6 min
29 | COc1ccc(Nc2cnc3ccc(-c4ccc(OC)c(OC)c4)nn23)cc1 | 6.77 min
30 | O=C1NC(=S)NC(=O)C1=Cc1cccn1-c1ccc(O)cc1 | 10.5 min
31 | CCOC(=O)c1nc(Nc2ccc(N3CCC(C)CC3)cc2)c2ccccc2n1 | 1.62 min
32 | NC(=O)C1CCN(c2nc(-c3ccccc3F)cs2)CC1 | 3.04 min
33 | Cc1cccc(S(=O)(=O)c2cn(Cc3ccccc3)c3cc(N4CCCC(C)C4)c(F)cc3c2=O)c1 (stereo not given) | 2.01 min
34 | c1cnc(N2CCN(Cc3c[nH]c4ccccc34)CC2)nc1 | 1.6 min
35 | O=C(Cc1c[nH]c2ncc(-c3ccc(Cl)cc3)cc12)NCc1cccnc1 | 1.66 min
36 | CCOC(=O)N1CCN(Cc2nc3cc(NC(=O)c4ccc(OC)cc4)ccc3n2C(C)C)CC1 | 26 min
37 | O=c1[nH]c(C2CCN(CC3CCCCC3)CC2)nn1Cc1ccccc1 | 25.3 min
38 | Cc1ccc2c(c1)/C(=C\c1cc(Cl)c(O)c(Cl)c1)C(=O)N2 | 22 min
39 | COc1cc2c(cc1-c1c(C)noc1C)ncc1[nH]c(=O)n([C@H](C)c3ccccn3)c12 | > 30 min
40 | CNC(=O)Cn1cc(-c2ccc3c(c2)C(F)CC32NC(=O)N(CC(=O)N(Cc3ccc(F)cc3)[C@@H](C)C(F)(F)F)C2=O)cn1 (stereo not given in full) | 18.9 min
41 | CN=C1CN=C(c2ccc[nH]2)c2cc(Cl)ccc2N1 | > 30 min and 23 min
42 | CC(=O)N1CCc2cc(-c3nc(NC(=O)Cc4ccc5c(c4)OCO5)sc3C)ccc21 | 20 min
43 | Cc1cnc(SCc2ccccn2)nc1C1CCCN(C(=O)c2scc3c2CCCC3)C1 (stereo not given) | 1.01 min
44 | Cc1ccc(S(=O)(=O)Nc2ccccc2C(=O)Nc2ccc(-c3ccccc3)nc2)cc1 | 2.7 min
45 | NC1(c2ccccc2Cl)CCCCC1=O (stereo not given) | 11 min
46 | FC(F)(F)c1ccccc1-c1nc(NCc2cccs2)c2ccccc2n1 | 2.5 min
47 | Cc1cc(C)c(CNC(=O)c2nc(-c3ccc(CN(C)C)cc3)cc3c2ccn3C(C)C)c(=O)[nH]1 | > 30 min
48 | Cc1noc(C)c1-c1ccc2ncnc(N3CCC(C(=O)O)CC3)c2c1 | > 30 min
49 | CC1=C(C(=O)Nc2nncs2)C2(CCCC2)N=C(Nc2nc3ccccc3o2)N1 | > 30 min
50 | Cc1sc2c(c1C)C(c1ccc(Cl)cc1)=N[C@H](CC(=O)NCCCCNC(=O)COc1cccc3c1C(=O)N([C@H]1CCC(=O)NC1=O)C3=O)c1nnc(C)n1-2 | 4.93 min

Row | Structure (SMILES) | half-life
51 | O=C(c1ccc2ccccc2c1)N1CCN(c2ccc(O)cc2)CC1 | > 30 min
52 | CCN(CC)C(=O)c1ccc(O)c(OC)c1 | > 30 min
53 | COc1cc(Cl)c(C)cc1Nc1c2c(nc3ccccc13)CCC2 | 1.75 min
54 | COc1cc(/C=C(\C#N)c2nc3ccccc3[nH]2)ccc1OCc1ccc(F)cc1 | 7.99 min
55 | O=C(O)c1ccccc1C(=O)Nc1ccc(-c2ccccc2)cc1 | > 30 min
56 | Cc1nsc(N)c1C(=O)N(C)CCOc1ccccc1Cl | 3.7 min
57 | C[S+](=O)([O-])c1ccc(-c2nc(C(=O)N3CCOCC3)n3ccccc23)cc1 | > 30 min
58 | Cc1ccc(S(=O)(=O)Nc2cccc(C(=O)Nc3nc(-c4ccccc4)cs3)c2Cl)cc1 | 15 min
59 | COc1ccc(C(=O)NC2CCN(c3cnn(CC4CC4)c(=O)c3)CC2)cc1 | > 30 min
60 | NC(=O)C1CCN(c2ncc(-c3cccc(F)c3)s2)CC1 | 9.48 min
61 | Cc1ccc(S(=O)(=O)Nc2cc(Cl)c(Cl)cc2C(=O)Nc2nc(-c3ccccc3)cs2)cc1 | 13 min
62 | CCOc1ccc(CCNC(=O)c2cc3sccc3n2CCN2CCN(C)CC2)cc1OCC | 6.2 min
63 | COCCNC(=O)c1ccc(-c2ccc(N3CCCCC3)nc2)cc1 | 3.26 min
64 | CCOC(=O)c1nn(-c2ccc(OC)cc2)c(=O)c2c(N)scc12 | 9.52 min
65 | COc1ccc(-n2cnc3cc(C(=O)N4CCCCC4)ccc32)cc1 | 20.7 min
66 | COc1ccc(C2CC(=O)Nc3nc(N)sc32)cc1OC (stereo not given) | > 30 min
67 | CCOc1ccc(N2CC(c3nc(-c4cc(OC)c(OC)c(OC)c4)no3)CC2=O)cc1 (stereo not given) | 7.3 min
68 | O=C(Nc1ccccc1F)c1nc(S(=O)(=O)Cc2ccccc2F)ncc1Cl | 1.49 min
69 | CN(C)c1ccc(CN2CCNc3cc(Nc4ccccc4)ncc3C2)cc1 | 2.01 min
70 | Cc1cccc(-n2cnc3cc(C(=O)N4CCCC(C)(C)C4)ccc32)c1 | 1.6 min
71 | O=C(Nc1nc(-c2ccccc2)cs1)c1ccncc1NS(=O)(=O)c1ccc(F)c(F)c1 | 11 min
72 | Cc1ccc(-n2nc3c(N4CCCC(C(=O)NCc5ccccc5C)C4)nnc(C)c3c2C)cc1 (stereo not given) | 2.1 min
73 | N#Cc1ccccc1Nc1ncc(-c2cccc3ccccc23)o1 | 5.8 min
74 | Fc1cnc(-c2ccccc2C(F)F)nc1NCC1CCN(c2cnccn2)CC1 | 3.4 min
75 | COc1cc(NS(=O)(=O)c2ccc(C)cc2)cc(C(=O)Nc2nc(-c3ccccc3)cs2)c1 | 13 min

Row | Structure (SMILES) | half-life
76 | O=c1c2c([nH]c3ccc(Br)cc13)CCCC2 | 15.9 min
77 | CC(C)c1ccccc1-c1ncc(F)c(NCC2CCN(c3cnccn3)C2)n1 (stereo not given) | 2.2 min
78 | Cc1ccc(S(=O)(=O)Nc2ccc(C(=O)Nc3nc(-c4ccccc4)cs3)cc2Cl)cc1 | 4 min
79 | CCN1CCN(CCCOc2ccc(-c3ccccc3)cc2)CC1 | 7.9 min
80 | COc1cccc(C(=O)Nc2nnc(S(=O)(=O)N3CCOCC3)s2)c1 | > 30 min
81 | COc1ccc(CN2CCN(C(=O)c3cc4c(s3)CCC4)CC2)cc1 | 1.9 min
82 | CCc1ccc(NC(=O)c2[nH]c(C)c(C(C)=O)c2C)cc1[S+](=O)([O-])N1CCCCCC1 | 2.1 min
83 | COc1c2c(c3c(c1CCC(=O)O)OC(C)(C)C=C3)OC(C)(C)C=C2 | > 30 min
84 | Cc1ccc(S(=O)(=O)n2cc(C(=O)Nc3ccc(-c4ccccc4)cc3)c3ccccc32)cc1 | 14 min
85 | CNc1nc(-c2ccc3c(N)n[nH]c3c2)cc(N2C[C@@H](C(=O)NC3CCCCC3)CC[C@@H]2C)n1 | 1.85 min
86 | Cc1cc2ccccc2n1CC(=O)NC1CCCCC1 | 2.8 min
87 | CC[S+](=O)([O-])Nc1ccccc1C(=O)Nc1nc(-c2ccccc2)cs1 | 14 min
88 | CCOC(=O)C1CCN(C(=O)C2(NC(=O)Nc3ccccc3Cl)CCCC2)CC1 | 1.5 min
89 | Cc1cccc(C)c1C(=O)Nc1cccc([S+](=O)([O-])N(C)C)c1 | 8 min
90 | CC[C@H](NC(=O)[C@H](C)NC)C(=O)N1C[C@@H](O)C[C@H]1Cc1c(-c2[nH]c3cc(F)ccc3c2C[C@H]2C[C@H](O)CN2C(=O)[C@H](CC)NC(=O)[C@H](C)NC)[nH]c2cc(F)ccc12 | > 30 min
91 | O=C(Nc1ccc(-c2nc3cc(NC(=O)c4ccccc4Cl)ccc3o2)cc1)c1ccccc1Cl | > 30 min
92 | CC(C)Oc1ccccc1C(=O)Nc1nc(-c2ccccc2)cs1 | 9 min
93 | N#Cc1ccc(N2N=C3c4ccc(C(=O)O)cc4CC[C@@H]3[C@@H]2C2CCCC2)cc1Cl | > 30 min
94 | O=C1CCCC2=C1C(c1ncccc1Br)N=C(Nc1nc3ccccc3o1)N2 (stereo not given) | 11.4 min
95 | COC(=O)c1ccc(Nc2nc(-c3ccncc3)nc3ccccc23)cc1OC | 9.5 min
96 | CC1(COc2ccc3c(c2)ncn3-c2ccc3cccc(N4CCC(N)CC4)c3n2)COC1 | > 30 min
97 | Cc1nnc2n1-c1ccc(Cl)cc1C(c1ccccc1)=NC2 | 21.2 min
98 | CCOC(=O)c1ccnc(CNCC(=O)N(CC)CCN(C)C)c1 | > 30 min
99 | CC(C)(O)CNc1nc(Nc2ccnc(C(F)(F)F)c2)nc(-c2cccc(C(F)(F)F)n2)n1 | > 30 min
100 | Cc1ccc2c(c1)c(=O)c1ccccc1n2CCCC(=O)Nc1cc(Cl)ccc1C | 3.79 min
